Results as given in patent publication EP1266900A1, “Carbamates of rapamycin” (Wyeth, priority 1992, dated 1994).
Counter-ions that a name gives are not always drawn.

Key:
pinch skin graft = pinch skin graft survival time, in vivo; set-up: species or system male C3H(H-2K) recipients; conditions: dose of 4 mg/kg; intraperitoneally or orally; untreated grafts usually rejected within 6-7 days; hydrochloride salt, 4 mg/kg
Protocol: (§1) Immunosuppressive activity for representative compounds of this invention was evaluated in an in vitro standard pharmacological test procedure to measure lymphocyte proliferation (LAF) and in an in vivo standard pharmacological test procedure which evaluated the survival time of a pinch skin graft.
Representative compounds of this invention were also evaluated in an in vivo test procedure designed to determine the survival time of pinch skin graft from male BAB/c donors transplanted to male C3H(H-2K) recipients. The method is adapted from Billingham R.E. and Medawar P.B., J. Exp. Biol. 28:385-402, (1951). Briefly, a pinch skin graft from the donor was grafted on the dorsum of the recipient as a allograft, and an isograft was used as control in the same region. The recipients were treated with either varying concentrations of test compounds intraperitoneally or orally. Rapamycin was used as a test control. Untreated recipients serve as rejection control. The graft was monitored daily and observations were recorded until the graft became dry and formed a blackened scab. This was considered as the rejection day. The mean graft survival time (number of days ± S.D.) of the drug treatment group was compared with the control group. […] Results are expressed as the mean survival time in days. Untreated (control) pinch skin grafts are usually rejected within 6-7 days. The results shown in Table 1 are based on a dose of 4 mg/kg of test compound. A survival time of 12.0 ± 1.7 days was obtained for rapamycin at 4 mg/kg.

[1] = tested on: cells from the thymus of normal BALB/c mice; assay: comitogen-induced thymocyte proliferation procedure (LAF); assay type: cell-based; conditions: hydrochloride salt; for IC50: thymocytes cultured for 72 hours with PHA and IL-1, tritiated thymidine incorporation, read-out: LAF IC50
Protocol: as §1
The comitogen-induced thymocyte proliferation procedure (LAF) was used as an in vitro measure of the immunosuppressive effects of representative compounds. Briefly, cells from the thymus of normal BALB/c mice are cultured for 72 hours with PHA and IL-1 and pulsed with tritiated thymidine during the last six hours. Cells are cultured with and without various concentrations of rapamycin, cyclosporin A, or test compound. Cells are harvested and incorporated radioactivity is determined. Inhibition of lymphoproliferation is assessed as percent change in counts per minute from non-drug treated controls. For each compound evaluated, rapamycin was also evaluated for the purpose of comparison. An IC50 was obtained for each test compound as well as for rapamycin. […] A positive ratio indicates immunosuppressive activity. […] Calculation of the ratio is shown below. (()^3 H-control thymus cells -)/(()^3 H-control thymus cells -)(()^3 H-rapamycin-treated thymus cells)/(()^3 H-test compound-treated cells) [formula]

Row | Compound | Skin Graft (days ± SD), mean survival time (pinch skin graft) [days] | IC50 [1] [nM] | LAF (ratio) ([1]; ratio compared with rapamycin, greater than 1 = inhibited thymocyte proliferation to a greater extent than rapamycin)
1 | CO[C@H]1C[C@@H]2CC[C@@H](C)[C@@](O)(O2)C(=O)C(=O)N2CCCC[C@H]2C(=O)O[C@H]([C@H](C)C[C@@H]2CC[C@@H](OC(=O)NCc3cccnc3)[C@H](OC)C2)CC(=O)[C@H](C)/C=C(\C)[C@@H](O)[C@@H](OC)C(=O)[C@H](C)C[C@H](C)/C=C/C=C/C=C/1C [Example 13, Rapamycin 42-ester with 3-pyridinylmethyl carbamic acid hydrochloride salt] | 9.50 ± 0.6 | 0.9 | –
2 | CO[C@H]1C[C@@H]2CC[C@@H](C)[C@@](O)(O2)C(=O)C(=O)N2CCCC[C@H]2C(=O)O[C@H]([C@H](C)C[C@@H]2CC[C@@H](OC(=O)NCCc3ccccn3)[C@H](OC)C2)CC(=O)[C@H](C)/C=C(\C)[C@@H](O)[C@@H](OC)C(=O)[C@H](C)C[C@H](C)/C=C/C=C/C=C/1C [Example 7, Rapamycin 42-ester with 2-(pyridin-2-yl)-ethyl carbamic acid hydrochloride salt] | 10.33 ± 0.5 | 1.2 | 2.3
